Source: ChEMBL document CHEMBL1201862, “PubChem BioAssay data set” (2004)
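Each compound was tested at five concentrations against cells in 96-well plates for 48 hours. GI50 is the concentration that inhibits growth by half.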 Active and inactive are the calls of the source. Cut-off read from the data, not from the text of the source: active = GI50 up to about 1.1 µM and inactive = higher.

How the values were obtained:
Test in all cases: DTP human tumour cell line panel, 48 h
SF-295 = system: SF-295
PC-3 = system: PC-3
SNB-75 = system: SNB-75
HOP-62 = system: HOP-62
SK-OV-3 = system: SK-OV-3
Malme-3M = system: Malme-3M
OVCAR-3 = system: OVCAR-3
DU-145 = system: DU-145
SK-MEL-28 = system: SK-MEL-28
HCT-116 = system: HCT-116
EKVX = system: EKVX
COLO 205 = system: COLO 205
RXF 393 = system: RXF 393
SNB-19 = system: SNB-19
MDA-MB-231 = system: MDA-MB-231
NCI-H460 = system: NCI-H460
HCC 2998 = system: HCC 2998
NCI/ADR-RES = system: NCI/ADR-RES
SK-MEL-5 = system: SK-MEL-5
TK-10 = system: TK-10
M14 = system: M14
MCF7 = system: MCF7
UO-31 = system: UO-31
A498 = system: A498
SK-MEL-2 = system: SK-MEL-2
T47D = system: T47D
MDA-N = system: MDA-N
UACC-257 = system: UACC-257
OVCAR-5 = system: OVCAR-5
786-0 = system: 786-0
SN12C = system: SN12C
Hs-578T = system: Hs-578T
MOLT-4 = system: MOLT-4
IGROV-1 = system: IGROV-1
KM12 = system: KM12
NCI-H522 = system: NCI-H522
HCT-15 = system: HCT-15
UACC-62 = system: UACC-62
SF-268 = system: SF-268
HT-29 = system: HT-29
ACHN = system: ACHN
NCI-H226 = system: NCI-H226
NCI-H23 = system: NCI-H23
A549 = system: A549
CAKI-1 = system: CAKI-1
SW-620 = system: SW-620
SF-539 = system: SF-539
U-251 = system: U-251
OVCAR-8 = system: OVCAR-8
RPMI-8226 = system: RPMI-8226
OVCAR-4 = system: OVCAR-4
MDA-MB-435 = system: MDA-MB-435
SR = system: SR
K562 = system: K562
HL-60 = system: HL-60
CCRF-CEM = system: CCRF-CEM

## COc1cc(/C=C/c2ccc(S(N)(=O)=O)cc2)cc(OC)c1
SF-295
  GI50: 22.6 µM (inactive)
PC-3
  GI50: 19.5 µM (inactive)
SNB-75
  GI50: 14.1 µM (inactive)
HOP-62
  GI50: 28.9 µM (inactive)
SK-OV-3
  GI50: 24.5 µM (inactive)
Malme-3M
  GI50: 14.8 µM (inactive)
OVCAR-3
  GI50: 16.5 µM (inactive)
DU-145
  GI50: 32.7 µM (inactive)
SK-MEL-28
  GI50: 23.9 µM (inactive)
HCT-116
  GI50: 14.5 µM (inactive)
EKVX
  GI50: 22.4 µM (inactive)
COLO 205
  GI50: 15.9 µM (inactive)
RXF 393
  GI50: 13.1 µM (inactive)
SNB-19
  GI50: 39.1 µM (inactive)
MDA-MB-231
  GI50: 16.9 µM (inactive)
NCI-H460
  GI50: 17.7 µM (inactive)
HCC 2998
  GI50: 19.7 µM (inactive)
NCI/ADR-RES
  GI50: 23.8 µM (inactive)
SK-MEL-5
  GI50: 16.2 µM (inactive)
TK-10
  GI50: 22.4 µM (inactive)
M14
  GI50: 51.2 µM (inactive)
MCF7
  GI50: 24.6 µM (inactive)
UO-31
  GI50: 21.9 µM (inactive)
A498
  GI50: 18.2 µM (inactive)
SK-MEL-2
  GI50: 18.7 µM (inactive)
T47D
  GI50: 8.18 µM (inactive)
MDA-N
  GI50: 20.6 µM (inactive)
UACC-257
  GI50: 20.3 µM (inactive)
OVCAR-5
  GI50: 39.8 µM (inactive)
786-0
  GI50: 21.5 µM (inactive)
SN12C
  GI50: 22.6 µM (inactive)

## COc1ccc(NC(=O)Oc2cc(C)c3ccc(=O)cc-3o2)c(OC)c1.COc1ccc(NC(=O)Oc2ccc3c(C)cc(=O)oc3c2)c(OC)c1
Hs-578T
  GI50: > 100 µM (inactive)
MOLT-4
  GI50: > 100 µM (inactive)
SF-295
  GI50: > 100 µM (inactive)
PC-3
  GI50: > 100 µM (inactive)
HOP-62
  GI50: > 100 µM (inactive)
SK-OV-3
  GI50: > 100 µM (inactive)
Malme-3M
  GI50: > 100 µM (inactive)
OVCAR-3
  GI50: > 100 µM (inactive)
DU-145
  GI50: > 100 µM (inactive)
SK-MEL-28
  GI50: > 100 µM (inactive)
IGROV-1
  GI50: > 100 µM (inactive)
HCT-116
  GI50: > 100 µM (inactive)
EKVX
  GI50: > 100 µM (inactive)
KM12
  GI50: 78.7 µM (inactive)
NCI-H522
  GI50: > 100 µM (inactive)
HCT-15
  GI50: > 100 µM
COLO 205
  GI50: > 100 µM (inactive)
UACC-62
  GI50: > 100 µM (inactive)
SF-268
  GI50: > 100 µM (inactive)
RXF 393
  GI50: > 100 µM (inactive)
HT-29
  GI50: > 100 µM (inactive)
ACHN
  GI50: > 100 µM (inactive)
SNB-19
  GI50: > 100 µM (inactive)
NCI-H226
  GI50: > 100 µM (inactive)
MDA-MB-231
  GI50: > 100 µM (inactive)
NCI-H460
  GI50: > 100 µM (inactive)
HCC 2998
  GI50: 82.8 µM (inactive)
NCI-H23
  GI50: > 100 µM (inactive)
NCI/ADR-RES
  GI50: > 100 µM (inactive)
A549
  GI50: > 100 µM (inactive)
CAKI-1
  GI50: > 100 µM (inactive)
SW-620
  GI50: > 100 µM (inactive)
SF-539
  GI50: > 100 µM (inactive)
U-251
  GI50: > 100 µM (inactive)
SK-MEL-5
  GI50: > 100 µM (inactive)
TK-10
  GI50: > 100 µM (inactive)
OVCAR-8
  GI50: > 100 µM (inactive)
M14
  GI50: > 100 µM (inactive)
RPMI-8226
  GI50: > 100 µM (inactive)
OVCAR-4
  GI50: 69.8 µM (inactive)
UO-31
  GI50: > 100 µM (inactive)
A498
  GI50: 31.9 µM (inactive)
SK-MEL-2
  GI50: > 100 µM (inactive)
T47D
  GI50: > 100 µM (inactive)
MDA-MB-435
  GI50: > 100 µM (inactive)
MDA-N
  GI50: > 100 µM (inactive)
OVCAR-5
  GI50: > 100 µM (inactive)
786-0
  GI50: > 100 µM (inactive)
SN12C
  GI50: > 100 µM (inactive)

## CCOC(=O)C(NC(=O)CC)(C(F)(F)F)P(=O)(OCC)OCC (configuration not stated)
MOLT-4
  GI50: > 100 µM (inactive)
SNB-75
  GI50: > 100 µM (inactive)
HOP-62
  GI50: > 100 µM (inactive)
SK-OV-3
  GI50: > 100 µM (inactive)
Malme-3M
  GI50: > 100 µM (inactive)
DU-145
  GI50: > 100 µM (inactive)
SK-MEL-28
  GI50: > 100 µM (inactive)
SR
  GI50: > 100 µM (inactive)
HCT-116
  GI50: > 100 µM (inactive)
EKVX
  GI50: > 100 µM (inactive)
NCI-H522
  GI50: > 100 µM (inactive)
HCT-15
  GI50: > 100 µM
UACC-62
  GI50: > 100 µM (inactive)
SF-268
  GI50: > 100 µM (inactive)
HT-29
  GI50: > 100 µM (inactive)
ACHN
  GI50: > 100 µM (inactive)
K562
  GI50: > 100 µM (inactive)
MDA-MB-231
  GI50: > 100 µM (inactive)
HCC 2998
  GI50: > 100 µM (inactive)
SF-539
  GI50: > 100 µM (inactive)
HL-60
  GI50: > 100 µM (inactive)
U-251
  GI50: > 100 µM (inactive)
M14
  GI50: > 100 µM (inactive)
RPMI-8226
  GI50: > 100 µM (inactive)
MCF7
  GI50: > 100 µM (inactive)
UO-31
  GI50: > 100 µM (inactive)
A498
  GI50: > 100 µM (inactive)
T47D
  GI50: > 100 µM (inactive)
MDA-MB-435
  GI50: > 100 µM (inactive)
MDA-N
  GI50: > 100 µM (inactive)
CCRF-CEM
  GI50: > 100 µM (inactive)
SN12C
  GI50: > 100 µM (inactive)
